What was measured:
[1] = test system: Nippostrongylus brasiliensis; test: in vivo test on anthelmintic activity against Nippostrongylus brasiliensis in rats (adult parasites remaining in small intestine); details: male Wister rats, oral, ten days after administration, vs infected untreated control
Procedure: "in vivo" Test on Anthelmintic Activity Against Nipostrongylus brasiliensis Male rats of Wister strain, which have been artificially infected with Nippostrongylus brasiliensis, were used as test animals. The administration dose (mg) of each test compound was accurately calculated on the basis of the body weight (kg) of each rat. Each compound tested was used in the form of a solution in dimethlsulfoxide or methanol. The solution was diluted with a Ringer solution and forcedly administered orally to the test rats. Ten days after the administration, the rats were dissected and the number of adult parasites remaining in the small intestines of the rats was counted. Efficacy was calculated in comparison with the number of adult parasites in the control group of test rats (infected, but untreated) and is shown in Table 2 below.

Haemonchus contortus = test: in vivo test on anthelmintic activity against sheep parasites (faecal egg count before and after dosing); details: sheep infested with Haemonchus contortus; oral, gelatine capsules
Text: "in vivo" Test on Anthelmintic Activity Against Sheep Parasites
To sheep on which a nematode, Haemonchus contortus has been infested, a test compounds formulated in the form of gelatine capsules was orally administered at its dose (mg) which was accurately calculated on the basis of the body weight (kg) of the tested sheep.
The number of eggs, which were excreted along with feces from the sheep under test, was counted quantitatively both before and after the administration of the test compound. Thus, the extent of the anthelmintic effects of the test compound was evaluated. The test results are shown in Table 1 below, wherein the tested compounds are indicated by the code number of each substance tested. In Table 1, there is shown the dosage of test compound at which involvement of the excretion of eggs could not be observed at all, that is to say, the dosage of each novel cyclodespsipeptide derivative of PF1022 substance according to this invention at which the parasite could be expelled or exterminated completely.

CC(C)C[C@H]1C(=O)O[C@H](Cc2ccccc2)C(=O)N(C)[C@@H](CC(C)C)C(=O)O[C@H](C)C(=O)N(C)[C@@H](CC(C)C)C(=O)O[C@H](Cc2ccccc2)C(=O)N(C)[C@@H](CC(C)C)C(=O)O[C@H](C)C(=O)N1C [PF1022 substance, Cyclo(L-MeLeu-D-Lac-L-MeLeu-D-PhLac-L-MeLeu-D-Lac-L-MeLeu-D-PhLac)]
Efficacy (%) ([1]; dosage 10 mg/kg): 80.2% | Adminstration dose (mg/kg): dosage at which excretion of eggs could not be observed at all (parasite expelled completely) (Haemonchus contortus): 0.25 mg/kg

CCN(CC)CCOc1ccc(C[C@H]2OC(=O)[C@H](CC(C)C)N(C)C(=O)[C@@H](C)OC(=O)[C@H](CC(C)C)N(C)C(=O)[C@@H](Cc3ccccc3)OC(=O)[C@H](CC(C)C)N(C)C(=O)[C@@H](C)OC(=O)[C@H](CC(C)C)N(C)C2=O)cc1 [PF1022-236, Cyclo[MeLeu-Lac-MeLeu-((C2 H5)2 NCH2 CH2 O)PhLac-MeLeu-Lac-MeLeu-PhLac]]
Adminstration dose (mg/kg): dosage at which excretion of eggs could not be observed at all (parasite expelled completely) (Haemonchus contortus): 0.01 mg/kg

COCCN(CCOC)CCOc1ccc(CC2OC(=O)C(CC(C)C)N(C)C(=O)C(C)OC(=O)C(CC(C)C)N(C)C(=O)C(Cc3ccccc3)OC(=O)C(CC(C)C)N(C)C(=O)C(C)OC(=O)C(CC(C)C)N(C)C2=O)cc1 (stereo not drawn) [PF1022-238, Cyclo[MeLeu-((CH3 OCH2 CH2)2 NCH2 CH2 O)PhLac-MeLeu-Lac-MeLeu-PhLac-MeLeu-Lac]]
Adminstration dose (mg/kg): dosage at which excretion of eggs could not be observed at all (parasite expelled completely) (Haemonchus contortus): 0.01 mg/kg

Cyclo[MeLeu-(Mor)PhLac-MeLeu-Lac-MeLeu-PhLac-MeLeu-Lac] [PF1022-233]
Efficacy (%) ([1]; dosage 1 mg/kg): 99.1% | Efficacy (%) ([1]; dosage 2 mg/kg): 100% | Efficacy (%) ([1]; dosage 5 mg/kg): 100% | Adminstration dose (mg/kg): dosage at which excretion of eggs could not be observed at all (parasite expelled completely) (Haemonchus contortus): 0.05 mg/kg

Cyclo[MeLeu-(Mor)PhLac-MeLeu-Lac] [reference compound]
Adminstration dose (mg/kg): dosage at which excretion of eggs could not be observed at all (parasite expelled completely) (Haemonchus contortus): 0.05 mg/kg

Cyclo[MeLeu-(MorCH2 CH2 O)PhLac-MeLeu-Lac-MeLeu-PhLac-MeLeu-Lac] [PF1022-239]
Adminstration dose (mg/kg): dosage at which excretion of eggs could not be observed at all (parasite expelled completely) (Haemonchus contortus): 0.025 mg/kg

Cyclo[MeLeu-(o-Mor)PhLac-MeLeu-Lac-MeLeu-(p-Mor)PhLac-MeLeu-Lac] [PF1022-280]
Efficacy (%) ([1]; dosage 1 mg/kg): 95.8% | Efficacy (%) ([1]; dosage 2 mg/kg): 99.3% | Efficacy (%) ([1]; dosage 5 mg/kg): 100%

Cyclo[MeLeu-Lac-MeLeu-((C2 H5)2 NHCH2 CH2 O)PhLac]2 [PF1022-263]
Adminstration dose (mg/kg): dosage at which excretion of eggs could not be observed at all (parasite expelled completely) (Haemonchus contortus): 0.01 mg/kg

Cyclo[MeLeu-Lac-MeLeu-((C6 H5)2 CHOCO)Lac-MeLeu-Lac-MeLeu-PhLac] [PF1022-046]
Adminstration dose (mg/kg): dosage at which excretion of eggs could not be observed at all (parasite expelled completely) (Haemonchus contortus): 0.1 mg/kg

Cyclo[MeLeu-Lac-MeLeu-((C6 H5)2 CHOCO)Lac]2 [PF1022-045]
Adminstration dose (mg/kg): dosage at which excretion of eggs could not be observed at all (parasite expelled completely) (Haemonchus contortus): 0.1 mg/kg

Cyclo[MeLeu-Lac-MeLeu-((CH3)2 NCH2 CH2 O)PhLac-MeLeu-Lac-MeLeu-PhLac] [PF1022-235]
Adminstration dose (mg/kg): dosage at which excretion of eggs could not be observed at all (parasite expelled completely) (Haemonchus contortus): 0.1 mg/kg

Cyclo[MeLeu-Lac-MeLeu-(Bu2 NCH2 CH2 O)PhLac-MeLeu-Lac-MeLeu-PhLac] [PF1022-271]
Efficacy (%) ([1]; dosage 5 mg/kg): 100%

Cyclo[MeLeu-Lac-MeLeu-(Pr2 NCH2 CH2 O)PhLac-MeLeu-Lac-MeLeu-PhLac] [PF1022-270]
Efficacy (%) ([1]; dosage 2 mg/kg): 94.2% | Efficacy (%) ([1]; dosage 5 mg/kg): 99.7%

Cyclo[MeLeu-Lac-MeLeu-(furfuryloxy)PhLac-MeLeu-Lac-MeLeu-PhLac] [PF1022-312]
Adminstration dose (mg/kg): dosage at which excretion of eggs could not be observed at all (parasite expelled completely) (Haemonchus contortus): 0.05 mg/kg

Cyclo[MeLeu-Lac-MeLeu-(imidazolyl-4-methoxy)PhLac-MeLeu-Lac-MeLeu-PhLac] [PF1022-304]
Adminstration dose (mg/kg): dosage at which excretion of eggs could not be observed at all (parasite expelled completely) (Haemonchus contortus): 0.05 mg/kg

Cyclo[MeLeu-Lac-MeLeu-(pipCH2 CH2 O)PhLac-MeLeu-Lac-MeLeu-PhLac] [PF1022-285]
Adminstration dose (mg/kg): dosage at which excretion of eggs could not be observed at all (parasite expelled completely) (Haemonchus contortus): 0.1 mg/kg

Cyclo[MeLeu-Lac-MeLeu-(t-BuO)PhLac]2 [PF1022-222]
Adminstration dose (mg/kg): dosage at which excretion of eggs could not be observed at all (parasite expelled completely) (Haemonchus contortus): 0.05 mg/kg

Cyclo[MeLeu-Lac-MeLeu-PhLac-MeLeu-Lac-MeLeu-(NH2 CO)PhLac] [PF1022-242]
Adminstration dose (mg/kg): dosage at which excretion of eggs could not be observed at all (parasite expelled completely) (Haemonchus contortus): 0.01 mg/kg

Source: patent US6329338A, “Derivatives of cyclodepsipeptide PF1022 substance” (Meiji Seika Kaisha, Ltd., priority 1995, dated 2001)
